Measured values from US20250057866A1, “A SYNERGISTIC PHARMACEUTICAL COMPOSITION AND ITS ANTIVIRAL USE” (priority 2022, published 2025).
Where two headings read alike, the source gives them in different places.

Test system: virus (0.01 MOI) in Vero-E6 cells
Assay: In vitro antiviral activity EC50 assay (CCK8, 48 h, 0.01 MOI virus in Vero-E6 cells)
Format: cell-based
Conditions: combination mol./mol.=1/1, combined total concentration
Experimental: • 1) Vero-E6 cells were digested and passaged. The cells were adjusted to a density of 1×10^5 cells/mL with DMEM containing 10% FBS, then seeded in a 96-well plate (100 μl/well), and incubated in a 35° C., 6% CO2 incubator for 20 h; • 2) Compound 1 and Compound 2 (mol./mol.=1/1) were diluted with DMEM containing 1% FBS to provide compositions with combined total concentrations (Compound 1+Compound 2) of 200 μM, 60 μM, 20 μM, 6 μM, 2 μM, 0.6 μM, 0.2 μM, 0.06 μM, and 0.02 μM; • 3) The culture medium in each well was removed, and the 96-well plate was marked on its lid, washed three times with 1×PBS, and 100 μL of dilutions of the compositions prepared above was added to each well, followed by 100 μL of a 0.01 multiplicity of infection (MOI) virus solution, so as to obtain final combined total concentrations of the compounds (Compound 1+Compound 2) at 100 μM, 30 μM, 10 μM, 3 μM, 1 μM, 0.3 μM, 0.1 μM, 0.03 μM, 0.01 μM. The 96-well plate, including a cell control group and a virus control group, was then incubated in a 35° C., 6% CO2 incubator; • 4) After 48 h, the cell viability was tested with a CCK8 kit.

In the case of `[2H]C1([2H])C[C@@H](C[C@@H](C#N)NC(=O)[C@@H]2[C@@H]3[C@H](CN2C(=O)[C@@H](NC(=O)C(F)(F)F)C(C)(C)C)C3(C)C)C(=O)N1` [Compound 1], the EC50 (Vero C1008, 48 h) is reported as 1720 nM and the EC50 (read-out: EC50) is reported as 1560 ± 576 nM.
With `[2H]C(OC(=O)C(C)C)[C@H]1O[C@@H](n2ccc(NO)nc2=O)[C@H](O)[C@@H]1O` (stereo partly drawn) [Compound 2, ((2R, 3S, 4R, 5R)-3,4-dihydroxy-5-(4-(hydroxylamino)-2-oxopyrimidin-1 (2H)-yl)tetrahydrofuran-2-yl) deuterated methyl isobutyl ester] the EC50 (Vero C1008, 48 h) was 1560 nM and the EC50 (read-out: EC50) was 1720 ± 585 nM.
